Results on 15 molecules are retold here after patent publication US10213429B2, “Imidazo-pyrazinyl derivatives useful as soluble guanylate cyclase activators” (Merck Sharp & Dohme Corp., priority 2015, dated 2019).

The assay has as its target T1, sGC α1/β1 heterodimer (Homo sapiens, UniProt Q02108+Q02153).
T1 construct: expressed in transfected cells; host or cells: CHO-K1 (clone #7, CHO-K1/sGC)
T1 sequence (Q02108 1-690): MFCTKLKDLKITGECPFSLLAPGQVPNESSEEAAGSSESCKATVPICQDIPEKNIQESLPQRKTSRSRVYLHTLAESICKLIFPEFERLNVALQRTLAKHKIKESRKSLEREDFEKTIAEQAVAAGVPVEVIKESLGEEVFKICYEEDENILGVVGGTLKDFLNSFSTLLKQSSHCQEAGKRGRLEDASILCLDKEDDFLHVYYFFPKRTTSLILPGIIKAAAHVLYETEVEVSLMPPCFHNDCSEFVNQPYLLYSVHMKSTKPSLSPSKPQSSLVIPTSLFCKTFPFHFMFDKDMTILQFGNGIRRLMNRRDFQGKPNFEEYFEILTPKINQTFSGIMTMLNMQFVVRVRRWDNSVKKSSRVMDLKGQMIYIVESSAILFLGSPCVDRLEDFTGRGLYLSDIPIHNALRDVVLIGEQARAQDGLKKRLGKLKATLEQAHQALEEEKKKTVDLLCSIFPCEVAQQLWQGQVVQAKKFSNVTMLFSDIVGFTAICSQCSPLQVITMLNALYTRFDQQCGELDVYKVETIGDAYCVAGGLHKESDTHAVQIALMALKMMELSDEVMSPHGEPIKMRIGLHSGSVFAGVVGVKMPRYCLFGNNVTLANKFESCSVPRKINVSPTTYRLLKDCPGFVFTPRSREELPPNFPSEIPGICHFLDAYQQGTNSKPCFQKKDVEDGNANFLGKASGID
T1 sequence (Q02153 1-619): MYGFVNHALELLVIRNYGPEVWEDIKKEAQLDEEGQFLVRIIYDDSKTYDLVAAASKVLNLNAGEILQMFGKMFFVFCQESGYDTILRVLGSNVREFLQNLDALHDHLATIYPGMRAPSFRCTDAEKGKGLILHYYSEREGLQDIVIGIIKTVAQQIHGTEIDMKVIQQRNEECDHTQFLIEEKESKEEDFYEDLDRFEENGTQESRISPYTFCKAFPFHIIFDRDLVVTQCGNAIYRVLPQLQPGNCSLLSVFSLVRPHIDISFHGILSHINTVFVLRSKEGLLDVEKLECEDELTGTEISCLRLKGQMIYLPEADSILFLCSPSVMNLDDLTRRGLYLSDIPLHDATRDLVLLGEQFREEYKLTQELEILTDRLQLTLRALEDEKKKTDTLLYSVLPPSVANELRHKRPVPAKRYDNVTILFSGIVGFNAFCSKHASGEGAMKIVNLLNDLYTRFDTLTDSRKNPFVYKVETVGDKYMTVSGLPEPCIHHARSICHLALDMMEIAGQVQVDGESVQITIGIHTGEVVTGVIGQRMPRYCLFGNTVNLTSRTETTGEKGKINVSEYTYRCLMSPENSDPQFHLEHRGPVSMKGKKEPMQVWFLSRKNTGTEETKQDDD
Briefly: Cell-Based sGC Functional Assay (CASA Assay), cGMP by HTRF in CHO-K1/sGC cells. The settings on record: for Emax: CHO-K1, percent activation relative to maximum cGMP production of Compound A (= 100%), read-out: % Act.; for EC50: cGMP production, 1 hr at 37° C., 4P fit, presence or absence of 1 μM DETA-NO not given, read-out: IP (nM) (inflection point). The text has this: Biological Assay 1: Cell-Based sGC Functional Assay (CASA Assay)
sGC is a heme-containing enzyme that converts GTP to secondary messenger cGMP. Increases in cGMP levels affect several physiological processes including vasorelaxation through multiple downstream pathways. […] Heme-dependent activators (HDAs) preferentially activate sGC containing a ferrous heme group. To determine the effect of sGC activators on enzyme activity, the CASA assay was developed to monitor the generation of cGMP in a cell line that stably expresses the heterodimeric sGC protein.
A CHO-K1 cell line stably expressing the sGC α1/β1 heterodimer was generated using a standard transfection protocol. CHO-K1 cells were transfected with plasmids pIREShyghsGCα1 and pIRESneo-hsGCβ1 simultaneously using FUGENE reagent. Clones that stably express both subunits were selected with hygromycin and neomycin for ˜2 weeks. Clone #7 was chosen for the assay and was designated CHO-K1/sGC. CHO-K1/sGC cells were maintained in F-K12 medium containing 10% heat-inactivated Fetal Bovine Serum (FBS), 100 μg/mL penicillin/streptomycin, 0.5 mg/mL hygromycin and 0.25 mg/mL G418. The cells were then cryopreserved in LN2. On the day of the assay, cells were thawed and resuspended in EBSS Assay Buffer (Sigma, E3024) supplemented with 5 mM MgCl2, 10 mM HEPES (4-(2-hydroxyethyl)piperazine-1-ethanesulfonic acid) and 0.05% BSA (bovine serum albumin) (EAB) and cell density was then adjusted to 4×10^5/mL with EAB. IBMX (3-isobutyl-1-methylxanthin, 0.5 mM) was added to inhibit degradation of cGMP. Compounds were diluted from DMSO stock solutions and added to the assay at a final DMSO concentration of 2.5%. Cells were incubated with compounds in the presence and absence of 1 μM of Diethylenetriamine/nitric oxide adduct (DETA-NO; Sigma, 17018) for 1 hr at 37° C. At the end of the incubation period, the reaction was terminated and the cells were lysed with the detection reagents from Cisbio Kits. The level of intracellular cGMP was determined using an HTRF-based assay kit (CisBio, 62GM2PEC), which detects the displacement of a fluorescence labeled cGMP from its specific antibody. The cGMP produced by test compounds was directly compared to the maximum cGMP production (this value was set to equal 100% activation.) of the published sGC-HDA Compound A:
[drawing 175] (Example 1 in WO 2010/065275, published Jun. 10, 2010). The test compounds' activities were then expressed as a percentage of Compound A, the standard in every experiment. This percent activation was calculated either in the presence or absence of DETA-NO which was then plotted. IP and maximum fold induction was derived using ADA analysis software for 4P fit.
The compounds in the Examples of the instant invention had inflection points (IP) less than or equal to 10 μM and most less than or equal to about 1 μM.
A general note: Time-resolved FRET reads energy transfer from a long-lived donor to a nearby acceptor.

For the molecule `CCCc1nc(-c2ncc3c(n2)NC(=O)C3(C)c2ccc(Cl)cn2)cn2ccnc12` (stereo not drawn) [Example 57A, 5-(5-chloropyridin-2-yl)-5-methyl-2-(8-propylimidazo[1,2-a]pyrazin-6-yl)-5H-pyrrolo[2,3-d]pyrimidin-6(7H)-one], the Emax was 90% and the EC50 was 981 nM.

For `CCCc1nc(-c2nc(O)c3c(n2)NC(=O)C3(C)c2ccc(Cl)cc2)cn2ccnc12` (stereo not drawn) [Example 14A, 5-(4-chlorophenyl)-4-hydroxy-5-methyl-2-(8-propylimidazo[1,2-a]pyrazin-6-yl)-5H-pyrrolo[2,3-d]pyrimidin-6(7H)-one], the Emax is 92% and the EC50 stood at 657 nM.

Turning to `O=C1Nc2nc(-c3cn4ccnc4c(CCCC(F)(F)F)n3)ncc2C1(c1ccc(F)cc1)C1CC1` (stereo not drawn) [Example 60B, 5-cyclopropyl-5-(4-fluorophenyl)-2-(8-(4,4,4-trifluorobutyl)imidazo[1,2-a]pyrazin-6-yl)-5H-pyrrolo[2,3-d]pyrimidin-6(7H)-one], the Emax was found to be 126% and the EC50 came out at 30 nM.

Consider `O=C1Nc2nc(-c3cn4ccnc4c(CCC(F)(F)C(F)(F)F)n3)nc(O)c2C1(c1ccc(Cl)cn1)C1CC1` (stereo not drawn) [Example 8A, 5-(5-chloropyridin-2-yl)-5-cyclopropyl-4-hydroxy-2-(8-(3,3,4,4,4-pentafluorobutyl)imidazo[1,2-a]pyrazin-6-yl)-5H-pyrrolo[2,3-d]pyrimidin-6(7H)-one], for which the Emax came to 142% and the EC50 turned out to be 1180 nM.

On to `CC1(c2ccc(F)cc2)C(=O)Nc2nc(-c3cn4ccnc4c(CCC(F)(F)C(F)(F)F)n3)nc(C3CC3)c21` (stereo not drawn) [Example 75A, 4-cyclopropyl-5-(4-fluorophenyl)-5-methyl-2-(8-(3,3,4,4,4-pentafluorobutyl)imidazo [1,2-a]pyrazin-6-yl)-5H-pyrrolo[2,3-d]pyrimidin-6(7H)-one], for which the Emax stood at 166% and the EC50 is 72 nM.

In the case of `CC1(c2ccc(Cl)cc2)C(=O)Nc2nc(-c3cn4ccnc4c(CCCC(F)(F)F)n3)ncc21` (stereo not drawn) [Example 40A, 5-(4-chlorophenyl)-5-methyl-2-(8-(4,4,4-trifluorobutyl)imidazo[1,2-a]pyrazin-6-yl)-5H-pyrrolo[2,3-d]pyrimidin-6(7H)-one], the Emax was determined as 110% and the EC50 was 22 nM.

Turning to `CCCCc1nc(-c2nc(O)c3c(n2)NC(=O)C3(c2ccc(Cl)c(F)c2)C2CC2)cn2ccnc12` (stereo not drawn) [Example 21A, 2-(8-butylimidazo[1,2-a]pyrazin-6-yl)-5-(4-chloro-3-fluorophenyl)-5-cyclopropyl-4-hydroxy-5H-pyrrolo[2,3-d]pyrimidin-6(7H)-one], the Emax turned out to be 122% and the EC50 was 115 nM.

Consider `CC1(c2ccc(F)cc2)C(=O)Nc2nc(-c3cn4ccnc4c(CCC(F)(F)C(F)(F)F)n3)nc(C#N)c21` (stereo not drawn) [Example 85A, 5-(4-Fluorophenyl)-5-methyl-6-oxo-2-(8-(3,3,4,4,4-pentafluorobutyl)imidazo[1,2-a]pyrazin-6-yl)-6,7-dihydro-5H-pyrrolo[2,3-d]pyrimidine-4-carbonitrile], for which the Emax stood at 97% and the EC50 turned out to be 257 nM.

Take `CCCCc1nc(-c2ncc3c(n2)NC(=O)C3(C)c2ccc(F)cn2)cn2cc(C)nc12` (stereo not drawn) [Example 91B, 2-(8-Butyl-2-methylimidazo[1,2-a]pyrazin-6-yl)-5-(5-fluoropyridin-2-yl)-5-methyl-5H-pyrrolo[2,3-d]pyrimidin-6(7H)-one]: the Emax was 117% and the EC50 was 330 nM.

As for `CC1(c2ccc(Cl)cn2)C(=O)Nc2nc(-c3cn4ccnc4c(Cc4ccc(F)cc4)n3)nc(O)c21` (stereo not drawn) [Example 16A, 5-(5-chloropyridin-2-yl)-2-(8-(4-fluorobenzyl)imidazo[1,2-a]pyrazin-6-yl)-4-hydroxy-5-methyl-5H-pyrrolo[2,3-d]pyrimidin-6(7H)-one], the Emax was determined as 111% and the EC50 is 45 nM.

Consider `O=C1Nc2nc(-c3cn4ccnc4c(CCC(F)(F)C(F)(F)F)n3)ncc2C1(c1ccc(F)cn1)C1CC1` (stereo not drawn) [Example 53A, 5-cyclopropyl-5-(5-fluoropyridin-2-yl)-2-(8-(3,3,4,4,4-pentafluorobutyl)imidazo[1,2-a]pyrazin-6-yl)-5H-pyrrolo[2,3-d]pyrimidin-6(7H)-one], for which the Emax came to 125% and the EC50 was 220 nM.

`CCCCc1nc(-c2nc(O)c3c(n2)NC(=O)C3(c2ccc(Cl)cc2F)C2CC2)cn2ccnc12` (stereo not drawn) [Example 33A, 2-(8-butylimidazo[1,2-a]pyrazin-6-yl)-5-(4-chloro-2-fluorophenyl)-5-cyclopropyl-4-hydroxy-5H-pyrrolo[2,3-d]pyrimidin-6(7H)-one]: the Emax amounted to 111% and the EC50 is 107 nM.

On to `CCCc1nc(-c2nc(O)c3c(n2)NC(=O)C3(C)c2ccc(Cl)c(F)c2)cn2ccnc12` (stereo not drawn) [Example 15B, 5-(4-chloro-3-fluorophenyl)-4-hydroxy-5-methyl-2-(8-propylimidazo[1,2-a]pyrazin-6-yl)-5H-pyrrolo[2,3-d]pyrimidin-6(7H)-one], for which the Emax stood at 84% and the EC50 came out at 702 nM.

Consider `CC1(c2ccc(Cl)cn2)C(=O)Nc2nc(-c3cn4c(N)cnc4c(CCC(F)(F)C(F)(F)F)n3)ncc21` (stereo not drawn) [Example 87A, 2-(3-Amino-8-(3,3,4,4,4-pentafluorobutyl)imidazo[1,2-a]pyrazin-6-yl)-5-(5-chloropyridin-2-yl)-5-methyl-5H-pyrrolo[2,3-d]pyrimidin-6(7H)-one], for which the Emax worked out at 130% and the EC50 came out at 316 nM.

On to `CC1(c2ccc(F)cn2)C(=O)Nc2nc(-c3cn4ccnc4c(CCCC(F)(F)F)n3)nc(C3CC3)c21` (stereo not drawn) [Example 73B, 4-cyclopropyl-5-(5-fluoropyridin-2-yl)-5-methyl-2-(8-(4,4,4-trifluorobutyl)imidazo[1,2-a]pyrazin-6-yl)-5H-pyrrolo[2,3-d]pyrimidin-6(7H)-one], for which the Emax was 125% and the EC50 came to 18 nM.
